Reference: ChEMBL document CHEMBL5236590, “Discovery of Novel N-(5-(Pyridin-3-yl)-1H-indazol-3-yl)benzamide Derivatives as Potent Cyclin-Dependent Kinase 7 Inhibitors for the Treatment of Autosomal Dominant Polycystic Kidney Disease” (J Med Chem, 2022)
Activity calls are given as the source filed them. The calls are words filed in the database; no cut-off is given here.

Columns and labels:
[1] = target: Tyrosine-protein kinase ABL1 (Homo sapiens) (UniProt P00519); assay: Inhibition of human partial length Ab1 (S229/K512) expressed in mammalian system at 1 uM by KINOMEscan analysis relative to control
[2] = target: Casein kinase II subunit alpha' (Homo sapiens) (UniProt P19784); assay: Inhibition of human full length wild type CK2alpha2 expressed in mammalian system at 1 uM by KINOMEscan analysis relative to control
Chain of Casein kinase II subunit alpha' (Homo sapiens) (P19784 whole entry, looked up): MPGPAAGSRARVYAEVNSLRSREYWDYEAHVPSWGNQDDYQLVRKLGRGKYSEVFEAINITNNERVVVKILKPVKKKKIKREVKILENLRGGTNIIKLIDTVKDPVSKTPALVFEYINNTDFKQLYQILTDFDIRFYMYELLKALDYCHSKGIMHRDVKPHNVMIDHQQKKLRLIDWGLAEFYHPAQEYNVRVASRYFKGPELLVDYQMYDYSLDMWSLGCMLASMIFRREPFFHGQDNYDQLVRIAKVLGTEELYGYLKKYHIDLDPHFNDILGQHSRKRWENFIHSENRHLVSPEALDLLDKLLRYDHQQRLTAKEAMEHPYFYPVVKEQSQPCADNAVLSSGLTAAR

[3] = Efflux ratio of apparent permeability in human Caco-2 cells after 120 mins by LC-MS/MS analysis; assay type: ADME, cell-based
[4] = target: Cyclin-dependent kinase 2 (Homo sapiens, UniProt P24941); assay: Inhibition of CDK2 (unknown origin) assessed as phosphorylation of ULight 4EBP1 peptide substrate measured after 2 hrs by FRET-based LANCE Ultra KinSelect assay
[5] = target: MAP kinase-activated protein kinase 2 (Homo sapiens) (UniProt P49137); assay: Inhibition of human partial length wild type MAPKAP-K2 expressed in bacterial system at 1 uM by KINOMEscan analysis relative to control
Mus musculus [6] = assay: Reduction in AMPD3 protein expression in kidney-specific Pkd1 knockout ADPKD mouse model assessed as protein expression in kidney at 5 mg/kg by Western blot analysis; assay type: functional, organism-based
[7] = target: MAP kinase-activated protein kinase 5 (Homo sapiens) (UniProt Q8IW41); assay: Inhibition of human partial length wild type PRAK (M1/D322) expressed in mammalian system at 1 uM by KINOMEscan analysis relative to control
[8] = Observed MRT (infinitive) in ICR mouse at 5 mg/kg, sc single dose measured upto 24 hrs; assay type: ADME, organism-based; conditions: in vivo
[9] = test system: Epidermal growth factor receptor (Homo sapiens), P00533 [UNDEFINED MUTATION]; assay: Inhibition of human partial length EGFR (R669/V1011) G719C mutant expressed in bacterial system at 1 uM by KINOMEscan analysis relative to control
[10] = target: PI3K p110 beta/p85 alpha (Homo sapiens) (UniProt P27986+P42338); assay: Inhibition of P13 kinase p110beta/p85alpha (unknown origin) at 1 uM relative to control; assay type: protein-complex assay
Homo sapiens [11] = species: Homo sapiens; assay: Inhibition of P13 Kinase p120gamma (unknown origin) at 1 uM relative to control
[12] = Observed volume of distribution at steady state in ICR mouse at 5 mg/kg, iv single dose measured upto 24 hrs; assay type: ADME, organism-based; conditions: in vivo, read-out: Vdss
Homo sapiens [13] = species: Homo sapiens; assay: Inhibition of PIK3 (unknown origin) at 1 uM relative to control
[14] = Observed AUC (infinitive) in ICR mouse at 5 mg/kg, sc single dose measured upto 24 hrs; assay type: ADME, organism-based; set-up: time < 24 hrs, dose 5 mg/kg, route sc; conditions: in vivo
[15] = target: Platelet-derived growth factor receptor beta (Homo sapiens) (UniProt P09619); assay: Inhibition of human partial length wild type PDGFRbeta V582/Y1009 expressed in bacterial system at 1 uM by KINOMEscan analysis relative to control
Chain of Platelet-derived growth factor receptor beta (Homo sapiens) (P09619 whole entry): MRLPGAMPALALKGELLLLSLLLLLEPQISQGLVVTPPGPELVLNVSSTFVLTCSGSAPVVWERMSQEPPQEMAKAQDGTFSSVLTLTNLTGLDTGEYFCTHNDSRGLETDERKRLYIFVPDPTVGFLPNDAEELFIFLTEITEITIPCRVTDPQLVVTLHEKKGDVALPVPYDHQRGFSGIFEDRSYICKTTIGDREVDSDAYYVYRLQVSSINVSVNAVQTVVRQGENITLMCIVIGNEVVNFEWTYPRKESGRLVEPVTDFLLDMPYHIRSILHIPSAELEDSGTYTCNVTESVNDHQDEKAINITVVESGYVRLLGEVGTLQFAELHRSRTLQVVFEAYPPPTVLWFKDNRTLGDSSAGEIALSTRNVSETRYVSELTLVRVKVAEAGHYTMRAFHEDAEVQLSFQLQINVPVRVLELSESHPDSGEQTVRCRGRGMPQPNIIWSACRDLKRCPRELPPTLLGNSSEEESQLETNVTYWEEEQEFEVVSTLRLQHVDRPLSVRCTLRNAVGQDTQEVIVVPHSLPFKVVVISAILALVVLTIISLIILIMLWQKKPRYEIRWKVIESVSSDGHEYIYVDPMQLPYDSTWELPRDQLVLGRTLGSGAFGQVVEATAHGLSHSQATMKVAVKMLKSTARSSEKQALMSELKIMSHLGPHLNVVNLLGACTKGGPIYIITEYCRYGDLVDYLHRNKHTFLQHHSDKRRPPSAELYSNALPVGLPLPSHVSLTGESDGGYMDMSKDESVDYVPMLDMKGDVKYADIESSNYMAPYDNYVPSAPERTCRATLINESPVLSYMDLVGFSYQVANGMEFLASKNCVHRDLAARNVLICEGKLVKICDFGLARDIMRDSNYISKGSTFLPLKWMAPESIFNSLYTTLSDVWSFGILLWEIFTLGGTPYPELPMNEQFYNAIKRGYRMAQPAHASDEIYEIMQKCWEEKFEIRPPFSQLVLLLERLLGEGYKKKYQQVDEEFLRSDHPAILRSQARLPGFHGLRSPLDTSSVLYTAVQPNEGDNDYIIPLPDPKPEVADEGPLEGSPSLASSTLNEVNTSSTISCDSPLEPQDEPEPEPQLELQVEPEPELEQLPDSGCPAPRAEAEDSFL

[16] = target: Insulin-like growth factor 1 receptor (Homo sapiens) (UniProt P08069); assay: Inhibition of human partial length wild type IGF-1R (L972/D1294) expressed in bacterial system at 1 uM by KINOMEscan analysis relative to control
[17] = target: Serine/threonine-protein kinase mTOR (Homo sapiens) (UniProt P42345); assay: Inhibition of human partial length wild type mTOR (L1382/W2549) expressed in mammalian system at 1 uM by KINOMEscan analysis relative to control
THP-1 = assay: Cytotoxicity against human THP-1 cells assessed as cell viability measured after 24 hrs by CCK-8 assay; assay type: functional, cell-based; conditions: THP-1, 24 h
[18] = target: Ephrin type-A receptor 5 (Homo sapiens) (UniProt P54756); assay: Inhibition of human partial length wild type EphA5 (T627/V930) expressed in bacterial system at 1 uM by KINOMEscan analysis relative to control
[19] = target: 5'-AMP-activated protein kinase catalytic subunit alpha-1 (Homo sapiens) (UniProt Q13131); assay: Inhibition of human partial length AMPKalphal (M1/E306) expressed in bacterial system at 1 uM by KINOMEscan analysis relative to control
Chain of 5'-AMP-activated protein kinase catalytic subunit alpha-1 (Homo sapiens) (Q13131 whole entry, looked up): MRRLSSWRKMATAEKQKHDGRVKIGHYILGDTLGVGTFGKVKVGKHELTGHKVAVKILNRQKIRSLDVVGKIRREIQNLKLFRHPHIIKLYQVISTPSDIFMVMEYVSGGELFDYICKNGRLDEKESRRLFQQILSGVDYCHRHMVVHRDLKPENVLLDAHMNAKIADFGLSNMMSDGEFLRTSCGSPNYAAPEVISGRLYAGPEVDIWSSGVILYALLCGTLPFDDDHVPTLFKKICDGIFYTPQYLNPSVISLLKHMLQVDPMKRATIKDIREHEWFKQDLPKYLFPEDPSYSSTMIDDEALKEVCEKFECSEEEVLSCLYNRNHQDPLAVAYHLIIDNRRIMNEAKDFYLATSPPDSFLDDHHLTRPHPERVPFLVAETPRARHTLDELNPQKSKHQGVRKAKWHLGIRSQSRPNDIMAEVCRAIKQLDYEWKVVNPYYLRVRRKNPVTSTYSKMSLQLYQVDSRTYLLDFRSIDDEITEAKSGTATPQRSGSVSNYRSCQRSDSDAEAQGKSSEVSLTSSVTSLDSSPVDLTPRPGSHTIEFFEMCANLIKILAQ

[20] = Plasma protein binding in mouse measured after 4 hrs by LC-MS/MS analysis; assay type: ADME, cell-free; conditions: read-out: PPB
[21] = target: Mitogen-activated protein kinase 14 (Homo sapiens) (UniProt Q16539); assay: Inhibition of full length human recombinant SAPK2a at 1 uM by radiometric assay
Chain of Mitogen-activated protein kinase 14 (Homo sapiens) (Q16539 whole entry): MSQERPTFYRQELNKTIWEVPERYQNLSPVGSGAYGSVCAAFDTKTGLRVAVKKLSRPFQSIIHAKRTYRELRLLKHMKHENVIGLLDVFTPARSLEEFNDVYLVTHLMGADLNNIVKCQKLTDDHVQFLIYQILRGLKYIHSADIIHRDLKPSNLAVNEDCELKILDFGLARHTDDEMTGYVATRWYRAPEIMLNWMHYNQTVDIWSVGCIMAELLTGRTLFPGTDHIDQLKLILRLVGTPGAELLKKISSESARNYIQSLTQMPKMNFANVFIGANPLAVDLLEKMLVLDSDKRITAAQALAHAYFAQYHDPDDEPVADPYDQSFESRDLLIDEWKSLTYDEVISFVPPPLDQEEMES

[22] = target: Glycogen synthase kinase-3 beta (Homo sapiens) (UniProt P49841); assay: Inhibition of human full length GSK3beta expressed in mammalian system at 1 uM by KINOMEscan analysis relative to control
[23] = target: Vascular endothelial growth factor receptor 2 (Homo sapiens) (UniProt P35968); assay: Inhibition of human partial length wild type KDR (R787/P1253) expressed in mammalian system at 1 uM by KINOMEscan analysis relative to control
Chain of Vascular endothelial growth factor receptor 2 (Homo sapiens) (P35968 whole entry): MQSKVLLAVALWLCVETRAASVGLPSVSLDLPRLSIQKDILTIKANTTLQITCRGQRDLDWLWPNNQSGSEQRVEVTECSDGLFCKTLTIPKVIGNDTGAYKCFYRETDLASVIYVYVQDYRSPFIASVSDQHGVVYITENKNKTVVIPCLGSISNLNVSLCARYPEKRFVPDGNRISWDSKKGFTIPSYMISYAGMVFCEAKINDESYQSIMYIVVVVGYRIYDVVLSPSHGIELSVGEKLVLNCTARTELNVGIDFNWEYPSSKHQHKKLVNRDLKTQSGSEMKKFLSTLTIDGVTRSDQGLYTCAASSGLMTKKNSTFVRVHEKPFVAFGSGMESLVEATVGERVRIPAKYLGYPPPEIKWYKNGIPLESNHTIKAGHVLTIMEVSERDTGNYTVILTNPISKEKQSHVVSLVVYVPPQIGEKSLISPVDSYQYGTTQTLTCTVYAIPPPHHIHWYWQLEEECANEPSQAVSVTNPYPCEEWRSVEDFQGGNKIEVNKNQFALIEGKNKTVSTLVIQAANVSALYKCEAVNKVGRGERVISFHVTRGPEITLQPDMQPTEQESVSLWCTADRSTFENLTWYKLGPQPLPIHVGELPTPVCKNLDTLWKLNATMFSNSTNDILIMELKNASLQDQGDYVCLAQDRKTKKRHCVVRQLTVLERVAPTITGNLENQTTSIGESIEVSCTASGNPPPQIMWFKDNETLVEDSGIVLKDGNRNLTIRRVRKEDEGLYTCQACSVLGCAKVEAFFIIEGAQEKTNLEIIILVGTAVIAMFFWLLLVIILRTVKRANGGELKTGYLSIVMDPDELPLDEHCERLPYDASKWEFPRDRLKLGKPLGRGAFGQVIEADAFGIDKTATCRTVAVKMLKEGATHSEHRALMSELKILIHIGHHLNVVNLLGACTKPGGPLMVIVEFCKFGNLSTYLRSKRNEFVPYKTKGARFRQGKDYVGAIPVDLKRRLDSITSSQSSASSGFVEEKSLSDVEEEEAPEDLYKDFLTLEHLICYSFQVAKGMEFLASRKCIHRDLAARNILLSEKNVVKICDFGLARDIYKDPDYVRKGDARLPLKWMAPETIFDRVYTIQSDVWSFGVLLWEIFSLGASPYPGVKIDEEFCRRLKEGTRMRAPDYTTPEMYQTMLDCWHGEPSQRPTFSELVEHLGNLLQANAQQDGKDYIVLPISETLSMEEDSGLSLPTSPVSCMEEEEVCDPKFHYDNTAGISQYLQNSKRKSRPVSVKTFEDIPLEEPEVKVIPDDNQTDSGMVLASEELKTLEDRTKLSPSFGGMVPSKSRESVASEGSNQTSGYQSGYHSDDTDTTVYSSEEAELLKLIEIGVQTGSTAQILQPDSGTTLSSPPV

[24] = Tmax in ICR mouse at 5 mg/kg, sc single dose measured upto 24 hrs; assay type: ADME, organism-based; conditions: in vivo
[25] = target: Protein kinase C theta type (Homo sapiens) (UniProt Q04759); assay: Inhibition of human partial length TPKCtheta (L350/S706) expressed in bacterial system at 1 uM by KINOMEscan analysis relative to control
[26] = target: Serine/threonine-protein kinase Chk1 (Homo sapiens) (UniProt O14757); assay: Inhibition of human partial length wild type CHK1 expressed in bacterial system at 1 uM by KINOMEscan analysis relative to control
[27] = target: Mitogen-activated protein kinase kinase kinase 5 (Homo sapiens) (UniProt Q99683); assay: Inhibition of human partial length wild type ASK1 expressed in bacterial system at 1 uM by KINOMEscan analysis relative to control
Chain of Mitogen-activated protein kinase kinase kinase 5 (Homo sapiens) (Q99683 whole entry): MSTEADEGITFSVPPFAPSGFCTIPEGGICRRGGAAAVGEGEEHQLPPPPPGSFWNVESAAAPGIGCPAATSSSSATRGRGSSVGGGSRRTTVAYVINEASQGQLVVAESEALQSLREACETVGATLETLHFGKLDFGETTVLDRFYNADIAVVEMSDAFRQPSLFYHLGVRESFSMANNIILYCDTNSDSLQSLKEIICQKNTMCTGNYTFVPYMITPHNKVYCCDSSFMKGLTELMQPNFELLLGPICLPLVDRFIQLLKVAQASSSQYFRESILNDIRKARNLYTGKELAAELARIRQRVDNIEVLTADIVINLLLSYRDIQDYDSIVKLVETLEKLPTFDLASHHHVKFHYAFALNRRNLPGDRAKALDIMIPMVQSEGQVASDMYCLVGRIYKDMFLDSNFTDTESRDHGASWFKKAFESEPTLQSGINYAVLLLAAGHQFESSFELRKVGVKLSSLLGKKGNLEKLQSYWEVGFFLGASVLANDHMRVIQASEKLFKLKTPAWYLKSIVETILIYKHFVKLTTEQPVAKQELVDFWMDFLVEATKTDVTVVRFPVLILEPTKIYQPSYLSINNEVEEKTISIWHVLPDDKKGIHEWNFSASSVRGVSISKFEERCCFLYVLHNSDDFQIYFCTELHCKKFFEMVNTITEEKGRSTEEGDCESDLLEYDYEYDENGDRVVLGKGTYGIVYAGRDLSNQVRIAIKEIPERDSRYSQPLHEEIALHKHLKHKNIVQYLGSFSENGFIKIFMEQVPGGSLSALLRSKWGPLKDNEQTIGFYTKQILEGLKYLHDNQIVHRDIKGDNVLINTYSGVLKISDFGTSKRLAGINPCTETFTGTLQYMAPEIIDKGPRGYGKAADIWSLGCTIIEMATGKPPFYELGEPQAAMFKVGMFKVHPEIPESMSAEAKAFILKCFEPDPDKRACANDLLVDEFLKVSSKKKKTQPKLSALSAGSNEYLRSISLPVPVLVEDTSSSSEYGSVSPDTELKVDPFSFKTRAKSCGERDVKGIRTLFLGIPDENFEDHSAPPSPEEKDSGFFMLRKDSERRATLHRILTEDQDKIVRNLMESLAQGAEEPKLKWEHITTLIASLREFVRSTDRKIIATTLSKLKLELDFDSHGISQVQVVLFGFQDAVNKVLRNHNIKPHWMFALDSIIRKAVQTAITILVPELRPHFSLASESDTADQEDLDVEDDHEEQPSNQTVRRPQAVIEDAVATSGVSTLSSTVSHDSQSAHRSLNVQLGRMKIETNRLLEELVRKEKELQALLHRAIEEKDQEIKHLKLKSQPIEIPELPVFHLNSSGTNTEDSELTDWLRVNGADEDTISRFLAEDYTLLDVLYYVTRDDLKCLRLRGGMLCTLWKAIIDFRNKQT

[28] = Bioavailability in ICR mouse at 5 mg/kg, sc single dose measured upto 24 hrs; assay type: ADME, organism-based; conditions: in vivo
[29] = target: SRSF protein kinase 1 (Homo sapiens) (UniProt Q96SB4); assay: Inhibition of human full length wild type SRPK1 expressed in mammalian system at 1 uM by KINOMEscan analysis relative to control
[30] = target: PI3-kinase p110-alpha/p85-alpha (Homo sapiens) (UniProt P27986+P42336); assay: Inhibition of PI3 kinase p110alpha/p85alpha (unknown origin) at 1 uM relative to control; assay type: protein-complex assay
[31] = target: Dual specificity mitogen-activated protein kinase kinase 1 (Homo sapiens) (UniProt Q02750); assay: Inhibition of human full length wild type MEK1 expressed in mammalian system at 1 uM by KINOMEscan analysis relative to control
Mus musculus [32] = assay: Reduction in kidney size in kidney-specific Pkd1 knockout ADPKD mouse model assessed as renal cystic index at 5 mg/kg by HE staining analysis (reference value: 23 +/- 1.3%); assay type: functional, organism-based
[33] = Half life in ICR mouse at 5 mg/kg, iv single dose measured upto 24 hrs; assay type: ADME, organism-based; conditions: in vivo
[34] = target: Cyclin-dependent kinase 7 (Homo sapiens, UniProt P50613); assay: Irreversible inhibition of CDK7 (unknown origin) assessed as activity measured after 3 hrs by jump dilution method

With C=CC(=O)Nc1ccc(C(=O)Nc2n[nH]c3ccc(-c4cncc(NC[C@@H](O)c5ccccc5)c4)cc23)cc1 the inhibition [1] was < 50%, the inhibition [2] was < 50% and the efflux ratio at 2 h [3] was > 48. For the same molecule, the IC50 [4] was 0.823 µM, the inhibition [5] was < 50% and the inhibition (Mus musculus [6]) was “Active”. For the same molecule, the inhibition [7] was < 50%, the MRT inf [8] was 5 h and the inhibition [9] was < 50%. For the same molecule, the inhibition [10] was < 50%, the inhibition (Homo sapiens [11]) was < 50% and the Vd [12] was 1.28 L/kg. The inhibition (Homo sapiens [13]) was < 50%, the AUC(0-inf) [14] was 17400 ng·h/mL and the inhibition [15] was < 50%. The inhibition [16] was < 50%, the inhibition [17] was < 50% and the IC50 (THP-1) was 13 µM. For the same molecule, the inhibition [18] was < 50%, the inhibition [19] was 79% and the fraction unbound at 4 h [20] was < 0.01. For the same molecule, the inhibition [21] was < 50%, the inhibition [22] was 99% and the inhibition [23] was 63%. The Tmax [24] was 1 h, the inhibition [25] was 74% and the inhibition [26] was < 50%. For the same molecule, the inhibition [27] was < 50%, the bioavailability [28] was 64.2% and the inhibition [29] was < 50%. For the same molecule, the inhibition [30] was < 50%, the inhibition [31] was < 50% and the Activity (Mus musculus [32]) was “Active”. The half-life [33] was 18 h and the inhibition [34] was “Active”.
